Columns and labels:
[1] = test system: human dermal papilla cells; test: Dermal papilla cell growth promotion (Cell Count Reagent SF, absorbance 450 nm); type: cell-based; conditions: FIG. 3
Method: Human dermal papilla cells (Catalog No. CA602t05a; derived from person; Toyobo Co., Ltd. (Japan)) were purchased, testing and evaluation being carried out with maintenance and culture of cells being performed as described in the protocol.
As drugs for testing, drug solutions consisting of culture medium for human dermal papilla cells containing palmitoyl dipeptide-5 diaminohydroxybutyrate in the following respective concentrations (final concentrations) were prepared, and these were used. • Working Example 1: 11.54709375 μM • Working Example 2: 23.0941875 μM • Working Example 3: 46.188375 μM • Working Example 4: 92.37675 μM • Working Example 5: 184.7535 μM • Working Example 6: 369.507 μM
A 96-well plate was seeded with human dermal papilla cells so as to obtain 1×10^3 thereof per well. […] After this had been added thereto, absorbance (measurement wavelength 450 nm; reference wavelength 620 nm) of the culture supernatant was measured. Based on these values, the cell growth rates at the respective wells were calculated, at which time the cell growth rate of the control group at which nothing had been added was taken to be 100%.

[2] = test system: hair shafts from skin samples transplanted in Balb/c nu/nu mice; test: Hair-diameter-increasing activity: hair shaft diameter of zigzag hairs that completed the second cycle; type: in vivo, mouse
Method: Measurement of increase in hair diameter was carried out using hair shafts that had completed the second cycle at the foregoing Exemplary Test 1. Of the hair shafts that were collected, three zigzag hairs were used for measurement of increase in hair diameter. Three locations were selected in regions where diameter was large in the central portions thereof using a square 100 μm on a side. For each of the selected regions, five different locations were further selected, and hair shaft diameter of the zigzag hairs thereat was measured to evaluate the degree to which increase in hair diameter had occurred.

FGF-7 gene = FGF-7 gene expression in human dermal papilla cells (real-time PCR, GAPDH internal standard); type: cell-based; conditions: 24 hours, FIG. 4
Method: Testing and evaluation were carried out with maintenance and culture of human dermal papilla cells being performed in the same manner as at Exemplary Test 3, above.
As drugs for testing, drug solutions of the following respective concentrations (final concentrations) were prepared and used. • Comparative Example 1: 100 μM adenosine • Working Example 1: 1 μM palmitoyl dipeptide-5 diaminohydroxybutyrate • Working Example 2: 10 μM palmitoyl dipeptide-5 diaminohydroxybutyrate • Working Example 3: 300 μM palmitoyl dipeptide-5 diaminohydroxybutyrate
A 24-well plate was seeded with human dermal papilla cells so as to obtain 6×10^3 thereof per well. […]
Following culture, total RNA was extracted from the respective wells and was recovered, and this was reverse-transcribed into cDNA. […] The GAPDH gene was used as an internal standard, the amount of FGF-7 gene expression being calculated relative to the negative control group.
A FastGene RNA Basic Kit (Catalog No. FG-80250; Nippon Genetics Co., Ltd. (Japan)) was used to recover total RNA from cells. […] Concentration of the recovered RNA was measured using a NanoDrop Lite (Catalog No. ND-LITE; Thermo Fisher Scientific K.K.), and this was stored at −80° C. until the following cDNA creation procedure.
A FastGene scriptase II cDNA synthesis 5× Ready Mix (Catalog No. NE-LS641; Nippon Genetics Co., Ltd. (Japan)) was used to synthesize cDNA. […]

[3] = test system: skin samples derived from mouse dorsal body hair skin (C57BL/6N) grafted onto Balb/c nu/nu mice; test: Hair growth activity: hair shaft length follow-up at transplanted skin samples after topical application; type: in vivo
Method: C57BL/6N mice (male) and Balb/c nu/nu mice (female) were purchased from Japan SLC, Inc.(Japan) and bred, and were thereafter made available for the following testing. Note that the testing and breeding of animals complied with pertinent laws, regulations, ordinances, and guidelines, and was performed with the approval of the Experimental Ethics Review Board of the Institute of Physical and Chemical Research.
The following reagents were respectively prepared. • Placebo: 60% aqueous ethanol solution • Working Example 1: 0.05% solution of palmitoyl • dipeptide-5 diaminohydroxybutyrate (3) Preparation of Skin Samples Derived from Mouse Dorsal Body Hair Skin
To collect dorsal body hair skin in the form of anagen stage VI skin 12 to 14 days following depilation, C57BL/6N mice of age 7 to 8 weeks were depilated at locations where dorsal body hair skin was intended to be collected, and were bred for 12 to 14 days. The depilated C57BL/6N mice were thereafter euthanized by cervical dislocation, following which a suitable amount of dorsal body hair skin was collected from the locations at which dorsal body hair skin was intended to be collected.
The collected skin was immersed in DMEM culture medium (hereinafter “DMEM 10”) which contained 10 mM HEPES, 10% fetal bovine serum, and 1% penicillin/streptomycin solution. The collected dorsal body hair skin was grasped with bent-nose curved tweezers and was treated by immersion for 10 seconds in a sterilizing solution. Sterilization treatment was performed by carrying out treatment with 7% povidone iodine solution two times, treatment with PBS (-) three times, and treatment with DMEM 10 two times, in this order, with fresh solutions respectively being used each time. Following sterilization treatment, these were immersed in clean DMEM 10.
Following sterilization treatment, the dorsal body hair skin was cut into pieces and formed into blocks. The transparent connective tissue which adhered to the cutaneous muscle layer of the skin was excised therefrom using curved scissors, and hair groups were cut into rectangular strips in parallel fashion with respect to the direction of the wave of the hair. At this time, these were cut into blocks such that there were 6 rows of hair follicles along the long axis, adjustment having been carried out so that there were 5 rows of hair follicles along the short axis.
The skin samples derived from dorsal body hair skin that were prepared in accordance with the foregoing were grafted onto Balb/c nu/nu mice of age 4 to 6 weeks.
More specifically, mice were anesthetized in the usual way using isoflurane gas. The dorsal area of the mice was then disinfected using 7% povidone iodine solution, following which the mice were made to assume a naturally recumbent posture. In addition, a Mani ophthalmic knife (Mani, Inc.; Japan) was used to pierce the skin at the dorsal area of the mice, the grafts which were formed extending from the epidermal layer of the skin to the subdermal layer. The skin samples derived from dorsal body hair skin were inserted into the grafts formed thereat in such fashion as to cause the hair groups to be directed toward the body surface side of the grafts. Skin sample transplanted depth was adjusted so as to cause the top portion of the hair group to be in a state such that it was exposed at the top portion of the graft. To protect the grafts, Nurseban (registered trademark) (Sunplanet Co., Ltd.; Japan) and surgical tape (3M Japan Limited; Japan) were then used as protective tape to cover the grafts at which the skin samples derived from dorsal body hair skin had been transplanted. The protective tape was removed 5 to 7 days following transplantation, and survival of the transplanted skin samples derived from dorsal body hair skin was determined by visual inspection or digital microscopy (Keyence Corporation: Japan), after which follow-up observation was carried out.
For the first hair cycle, 60% aqueous ethanol solution was applied thereto as placebo. […]

[4] = 0.05% solution, second hair cycle vs placebo applied in first hair cycle
[5] = solution containing 0.05%, applied at transplanted skin samples in mice

palmitoyl dipeptide-5 diaminohydroxybutyrate
Cell growth rate as compared with control group at which nothing had been added (control = 100%) ([1]; 11.54709375 to 369.507 μM (Working Examples 1 to 6), 24, 48 or 72 hours): increase in cell growth rate
Concentration dependence of cell growth ([1]; 11.54709375 to 369.507 μM, peak at concentration of Working Example 5 (184.7535 μM)): induced cell growth in concentration-dependent fashion
Hair diameter as compared with 60% aqueous ethanol control (in words) ([2]; hair shafts which had completed the second cycle): clear increase in hair diameter
Hair shaft diameter: Percent increase (%) ([2]; second hair cycle vs placebo applied in first hair cycle): 124%
Hair shaft diameter (μm) ([2]; zigzag hairs, second hair cycle, 0.05% solution, placebo (first hair cycle) 18.5 ± 3.1, ** p<0.01): 22.9 ± 2.5 ** μm
Amount of expression of the FGF-7 gene as compared with control group at which nothing had been added (FGF-7 gene; 1 μM and 10 μM (Working Examples 1 and 2)): increase in the amount of expression of the FGF-7 gene
Amount of expression of the FGF-7 gene compared with 100 μM adenosine (Comparative Example 1) (FGF-7 gene; increasing the amount added): greater than that which was produced as a result of action of adenosine
Hair shaft elongation rate (mm/day) ([3]; 0.05% solution applied topically, second hair cycle, placebo (first hair cycle) 0.38 ± 0.06): 0.39 ± 0.06 mm/day
Maximum hair shaft length (mm) ([3]; 0.05% solution applied topically, second hair cycle, placebo (first hair cycle) 4.9 ± 0.4, * p<0.05): 5.2 ± 0.2 * mm
Hair shaft elongation rate: Percent change relative to reference data [3, 4]: 100.63%
Maximum hair shaft length: Percent change relative to reference data [3, 4]: 105.19%
Hair growth activity (in words) ([3]; solution containing 0.05%): exhibit hair growth activity
Hair shaft elongation rate as compared with reference data (in words) [3, 5]: improvement in hair shaft elongation rate
Maximum hair shaft length as compared with reference data (in words) [3, 5]: significant improvement
